Test results as given in PubChem BioAssay AID179 (DTP/NCI, 2004).
Values joined by “and” are separate entries in the source; they are usually repeats but may differ in a detail not shown here. Identical values can stand only once. Active and inactive are the calls of the source.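 Rule for the calls: active = compounds giving half or more protection of infected cells from virus-caused growth loss, again on retest; inactive = the rest.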

Tested on: CEM cells HIV-1 protection, formazan growth assay
Assay: NCI AIDS Antiviral Assay
Conditions: for IC50: measured here: growth of uninfected CEM cells
How it was run: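 Steps: treat uninfected and HIV-1-infected human CEM cells at five drug levels; quantify growth by soluble formazan; retest any compound reaching 50% protection; classify actives from the retest.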

Compound: CN(C(=O)C12C3C4C1(C(=O)O)C1C2C3(C(=O)O)C41C(=O)N(C)C(C)(C)C)C(C)(C)C (stereo not drawn)
- EC50: > 17.4 µM
- IC50: > 17.4 µM

Compound: Cc1cc(N(CCC#N)CCC#N)ccc1/C(N=Nc1ccccc1)=N\NC(=O)c1cc(Cl)ccc1O
- EC50: > 200 µM
- IC50: 28.8 µM

Compound: O=C(NC(=O)c1c(F)cccc1F)Nc1ncc(Br)cc1Br
- EC50: > 200 µM
- IC50: > 200 µM

Compound: COP1(=O)Oc2ccccc2C(=O)C(C(F)(F)F)(C(F)(F)F)O1 (stereo not drawn)
- EC50: > 692 µM
- IC50: 295 µM

Compound: COc1ccc(C(c2c(O)c3ccccc3oc2=O)c2c(O)c3ccccc3oc2=O)cc1
- EC50: > 200 µM
- IC50: 87.1 µM

Compound: CC1=C(C#N)S(=O)(=O)c2c(oc(C)c2C)N1
- EC50: > 200 µM
- IC50: > 200 µM

Compound: CCOC(=O)/C(=C/c1ccc(N(C)C)cc1)C(=O)c1ccccc1
- EC50: > 8.51 µM
- IC50: > 8.51 µM

Compound: O=C1CNCCCN2CCN(CCCNCC(=O)Nc3ccc(cc3)S(=O)(=O)c3ccc(cc3)NC(=O)CNCCCN3CCN(CCCNCC(=O)Nc4ccc(cc4)S(=O)(=O)c4ccc(cc4)N1)CC3)CC2
- EC50: > 50.1 µM
- IC50: > 50.1 µM

Compound: S=C1NC(=NC2CCCCC2)C2(CCN(CCc3ccccc3)CC2)N1c1ccccc1
- EC50: > 100 µM
- IC50: 53.7 µM

Compound: CC(C)OC(=O)c1ccc(CCC2=CC(=O)C(Br)=CC2=O)cc1
- EC50: > 200 µM
- IC50: 8.71 µM

Compound: Cc1ccc(NC(=O)c2cc(S(=O)(=O)n3cc[nH]c3=O)c(S)cc2Cl)cc1
- EC50: > 200 µM
- IC50: > 200 µM

Compound: N#CCC(=O)Nn1c(CC#N)nnc1Cc1ccccc1
- outcome: inactive

Compound: Clc1ccccc1C[P+](c1ccccc1)(c1ccccc1)c1ccccc1
- EC50: > 200 µM
- IC50: 4.57 µM

Compound: O=C(/C=C/c1ccsc1)c1ccsc1
- EC50: > 200 µM
- IC50: 3.39 µM

Compound: Fc1ccc2c(c1)SC1Oc3ccccc3-c3c1c-2nn3-c1ccccc1 (stereo not drawn)
- EC50: > 19.5 µM
- IC50: > 19.5 µM

Compound: Cc1[nH]c2ccccc2c1C1Cc2ccccc2N1C(=O)C#Cc1ccc([N+](=O)[O-])cc1 (stereo not drawn)
- outcome: inactive

Compound: CCOC(=O)NP(=O)(Nc1ccccc1)Nc1ccccc1
- EC50: > 200 µM
- IC50: > 200 µM

Compound: CCOc1ccccc1/C=C(/C#N)C(N)=O
- EC50: > 200 µM
- IC50: 117 µM

Compound: COc1ccc(C(=O)C(CC2C(=O)NC(=O)NC2=O)c2ccc(OC)cc2)cc1 (stereo not drawn)
- EC50: > 34.7 µM
- IC50: > 34.7 µM

Compound: C=CCONC(=O)c1ccc(Cl)cc1
- EC50: > 617 µM
- IC50: 525 µM

Compound: COc1cc(O)c2c(c1)O[C@H](C)C(C)C2=O (stereo partly drawn)
- EC50: > 200 µM
- IC50: > 200 µM

Compound: C#CN1C(=O)c2c(c(-c3ccccc3)c(-c3ccc(Oc4ccc(-c5c(-c6ccccc6)c6c(c(-c7ccccc7)c5-c5ccccc5)C(=O)N(C#C)C6=O)cc4)cc3)c(-c3ccccc3)c2-c2ccccc2)C1=O
- EC50: > 10.2 µM
- IC50: > 10.2 µM

Compound: CC(CC12CCC3(OO1)C(C)(C)CCCC3(C)O2)OC(=O)c1ccccc1 (stereo not drawn)
- EC50: > 200 µM
- IC50: 18.2 µM

Compound: O=C1/C(=C\c2ccc(Cl)cc2)SC2SC=C(c3ccc([N+](=O)[O-])cc3)N12 (stereo not drawn)
- EC50: > 200 µM
- IC50: 26.3 µM

Compound: ClCCC[Si]12OCCN(CCO1)CCO2
- outcome: inactive

Compound: O=c1oc2ccccc2c(O)c1Cc1ccccc1Cc1c(O)c2ccccc2oc1=O
- EC50: > 200 µM
- IC50: 102 µM

Compound: CCOC(=O)C(=CNC(=S)Nc1c(CC)cccc1CC)C(=O)OCC
- EC50: > 200 µM
- IC50: > 200 µM

Compound: Cc1ccc(C2(C(=O)O)CCCN2)cc1 (stereo not drawn)
- EC50: > 200 µM
- IC50: > 200 µM

Compound: Cl[Si]1(Cl)Oc2ccccc2O[Si](Cl)(Cl)Oc2ccccc2O1
- EC50: > 12.6 µM
- IC50: > 12.6 µM

Compound: CC(C)=CCCc1c(C)ccc2c1C(=O)C(=O)C(C(C)C)=C2
- EC50: > 60.3 µM
- IC50: 4.47 µM

Compound: O=C(CCCCCCCCC(=O)NCC1(c2ccccc2)CCNCC1)NCC1(c2ccccc2)CCNCC1
- EC50: > 100 µM
- IC50: > 100 µM

Compound: O=CC[C@H]1C=Cc2ccccc2[C@@]12C=CC(=O)CC2
- EC50: > 28.8 µM
- IC50: 21.9 µM

Compound: O=C1c2ccccc2C(=Nc2ccc3ccccc3c2)C1(C1=C(c2ccccc2)C(=Nc2ccc3ccccc3c2)c2ccccc21)c1ccccc1 (stereo not drawn)
- EC50: > 200 µM
- IC50: 11.7 µM

Compound: c1ccc([P+](CCCCCCCC[P+](c2ccccc2)(c2ccccc2)c2ccccc2)(c2ccccc2)c2ccccc2)cc1
- EC50: > 100 µM
- IC50: 1.23 µM

Compound: NC(CSS(=O)(=O)O)=NCc1ccccc1
- EC50: > 200 µM
- IC50: > 200 µM

Compound: Cn1c(=O)c2c(nc3sc4ncccc4c(=O)n32)n(C)c1=O
- EC50: > 151 µM
- IC50: > 151 µM

Compound: CC(=O)OC1(C)C(=O)OC1(C)C(C)=O (stereo not drawn)
- outcome: inactive

Compound: COc1ccc(S(=O)(=O)O)cc1C(=O)c1cc(S(=O)(=O)O)ccc1OC
- EC50: > 575 µM
- IC50: > 575 µM

Compound: Cn1c(=O)oc2cc(C(=O)CSC(=S)N3CCCCCC3)ccc21
- EC50: > 200 µM
- IC50: 135 µM

Compound: c1ccc([P+](CCCCCC[P+](c2ccccc2)(c2ccccc2)c2ccccc2)(c2ccccc2)c2ccccc2)cc1
- EC50: > 200 µM
- IC50: 5.37 µM and 7.24 µM

Compound: CN(c1ccccc1)c1cc2ccccc2nn1
- EC50: > 200 µM
- IC50: 93.3 µM

Compound: COc1cc(CSc2ccc(O)cc2)cc(OC)c1OC
- EC50: > 200 µM
- IC50: 33.1 µM

Compound: N#CC1=C(C#N)/C(=C(\C#N)C(C#N)C#N)N=C1N
- EC50: > 100 µM
- IC50: 37.2 µM

Compound: CC(C)SC(C)(NC(=O)C1C(C)(C)CCC1(C)C)C(=O)O (stereo not drawn)
- EC50: > 200 µM
- IC50: > 200 µM

Compound: CC(C)CCCC(C)C1CCC2[C@@H]3CCC4C[C@@H](CCC=C(c5cc(Br)c(O)c(C(=O)O)c5)c5cc(Br)c(O)c(C(=O)O)c5)CC[C@]4(C)C3CC[C@]12C (stereo partly drawn)
- EC50: 20.9 µM
- IC50: 282 µM

Compound: CC(=O)Oc1cc(OC(C)=O)c2c(=O)c(OC(C)=O)c(-c3ccc(OC(C)=O)c(OC(C)=O)c3)oc2c1
- EC50: > 200 µM
- IC50: 9.33 µM

Compound: CC(=O)C(N=Nc1ncn[nH]1)C(C)=O
- EC50: > 200 µM
- IC50: 170 µM

Compound: COc1ccc(C2SCC(=O)N2NC(=O)c2ccc(NC(C)=O)cc2)cc1 (stereo not drawn)
- EC50: > 35.5 µM
- IC50: > 35.5 µM

Compound: COc1ccc(C2=NOP(c3ccccc3)(c3ccccc3)(c3ccccc3)C2)cc1
- EC50: > 105 µM
- IC50: 0.661 µM

Compound: CCN(CC)CC(=O)Nc1cccc(Cl)c1
- EC50: > 200 µM
- IC50: > 200 µM

Compound: COC(=O)C1Cc2cc3c(cc2C1=O)CCCC3 (stereo not drawn)
- EC50: > 1000 µM
- IC50: 66.1 µM

Compound: CCC(=O)C(C)C1=Nc2nnc(CCCCCCCc3nnc4n3C(=O)C(C(C)C(=O)CC)=N4)n2C1=O (stereo not drawn)
- EC50: > 1.07 µM
- IC50: > 1.07 µM

Compound: C=C1C(=O)OC2/C=C(\C)CC(O)/C=C(/CO)CC(OC(=O)/C(C)=C/C)C12 (stereo not drawn)
- EC50: > 100 µM
- IC50: 53.7 µM

Compound: Cc1ccc2ccc3ccc(C)nc3c2n1
- EC50: > 12 µM
- IC50: 0.24 µM

Compound: CC(C)=C(OP1(=S)OCCN1C)C(C)(C)C(=O)N(C)C (stereo not drawn)
- EC50: > 776 µM
- IC50: 537 µM

Compound: CN(C)CCSc1cccc(-c2cc(-c3cccc(SCCN(C)C)c3)ncn2)c1
- EC50: > 21.9 µM
- IC50: 8.71 µM

Compound: COc1cc(/C=C/c2cc(O)cc(C3OC(CO)C(O)C(O)C3O)c2)ccc1O (stereo not drawn)
- outcome: inactive

Compound: N#Cc1nc(C(CO)N(Cc2ccccc2)C(=O)O)oc1N (stereo not drawn)
- EC50: > 200 µM
- IC50: > 200 µM

Compound: COC(=O)CSc1nc2[nH]c(SC)c(C(N)=O)c2c(=O)n1-c1ccccc1
- EC50: > 200 µM
- IC50: > 200 µM

Compound: CC(C)c1ccc2c(c1)CCC1C2(C)CCCC1(C)C(O)c1ccccc1 (stereo not drawn)
- EC50: > 200 µM
- IC50: 38 µM

Compound: Nn1c(-c2ccccc2)nc2ccc(Br)cc2c1=O
- outcome: inactive

Compound: O=C(CC(C(=O)c1cccs1)c1ccsc1)c1ccc(Cl)cc1 (stereo not drawn)
- EC50: > 200 µM
- IC50: 52.5 µM

Compound: CC(=O)NNc1nc(C)c(C(=O)NNC(=O)C(=O)Nc2ccc(Cl)c([N+](=O)[O-])c2)s1
- EC50: > 288 µM
- IC50: 107 µM

Compound: C=CCOC1=C(OC(C)=O)C(C2COC(C)(C)O2)OC1=O (stereo not drawn)
- EC50: > 200 µM
- IC50: 16.2 µM

Compound: C=CCOc1ccc(/C(N=Nc2ccc([N+](=O)[O-])cc2)=N/NC(=O)c2ccccc2)cc1OC
- EC50: > 200 µM
- IC50: 178 µM

Compound: O=C1/C(=C/c2ccco2)N=C2Sc3c(nc[nH]c3=O)N12
- EC50: > 200 µM
- IC50: > 200 µM

Compound: Cc1ccc(NC(=O)c2cc3ccccc3c(N=Nc3cc(S(=O)(=O)O)ccc3O)c2O)c(C)c1
- EC50: 0.832 µM
- IC50: 4.27 µM

Compound: CCCCCCNCCCNc1c2cc(OC)ccc2nc2cccc([N+](=O)[O-])c12
- EC50: > 2 µM
- IC50: 0.347 µM

Compound: COc1cc(-c2cccs2)sc1-c1cccs1
- EC50: > 9.77 µM
- IC50: > 9.77 µM

Compound: CCN(CC)CCNC(=O)c1ccc(C)c(OCc2ccccc2)c1[N+](=O)[O-]
- EC50: > 200 µM
- IC50: 33.9 µM

Compound: CC(=O)c1cc(CC2Cc3cc4c(cc3C2=O)CCC4)cc2c1CCC2 (stereo not drawn)
- EC50: > 200 µM
- IC50: 12.9 µM

Compound: C[C@@H]1CN(C(=O)CCOS(C)(=O)=O)[C@@H](C)CN1C(=O)CCOS(C)(=O)=O
- EC50: > 200 µM
- IC50: 67.6 µM

Compound: O=[N+]([O-])c1ccc(NS(=O)(=O)C(F)(F)F)cc1
- EC50: > 200 µM
- IC50: > 200 µM

Compound: COc1cc(/C=C/c2ccc(O)c(OC)c2)cc(OC)c1
- EC50: > 126 µM
- IC50: 2.14 µM

Compound: CSc1nc2[nH]ccc2c(=O)[nH]1
- outcome: inactive

Compound: Cc1cccc(NC(=O)CC(=O)N2N=C(N(CCC#N)c3ccccc3Cl)CC2c2ccccc2)c1 (stereo not drawn)
- EC50: > 186 µM
- IC50: > 186 µM

Compound: CC(=O)c1cccc(NC(=O)C(=O)C(c2cnc3ccc([N+](=O)[O-])cc3n2)[N+](=O)[O-])c1 (stereo not drawn)
- EC50: > 117 µM
- IC50: > 117 µM

Compound: O=C(CP(c1ccccc1)c1ccccc1)c1cccc(C(=O)CP(c2ccccc2)c2ccccc2)c1
- EC50: > 200 µM
- IC50: 33.1 µM

Compound: Cc1cc(N)c(C)c2c1[nH]c1ccc(O)cc12
- EC50: > 302 µM
- IC50: 28.8 µM

Compound: C[N+](C)(C)CC(=O)N/N=C(\C(=O)Nc1ccc(Cl)cc1)C1C(=O)N(c2ccccc2)N=C1N (stereo not drawn)
- EC50: > 17.8 µM
- IC50: > 17.8 µM

Compound: CC(C)c1ccc(C(=O)c2ccccc2C(=O)O)cc1
- EC50: > 200 µM
- IC50: > 200 µM

Compound: Nc1nc2c(ncn2CC2COC(CO)O2)c(=O)[nH]1 (stereo not drawn)
- EC50: > 468 µM
- IC50: > 468 µM

Compound: C=C(C)C(=O)OC1C[C@H](COC(C)=O)C2CC=C(C)C2C2OC(=O)C(=C)[C@H]12 (stereo partly drawn)
- EC50: > 200 µM
- IC50: 1.05 µM

Compound: CNc1ccc(C=C2C=CC=C2)cc1
- EC50: > 74.1 µM
- IC50: 39.8 µM

Compound: O=C([N-]/N=C/c1ccccc1)c1ccccc1[O-].[OH3+].[Zn+2]
- EC50: 162 µM
- IC50: 166 µM
